In ChEMBL document CHEMBL1141028, “Novel NGF-potentiating diterpenoids from a Brazilian medicinal plant, Ptychopetalum olacoides” (Bioorg Med Chem Lett, 2009):
Activity calls are given as the source filed them. The calls are words filed in the database; no cut-off is given here.

Tests used:
[1] = test system: PC-12; assay: Enhancement of neurite outgrowth in rat PC12 cells assessed as morphological changes after 4 days by phase-contrast microscopy in absence of NGF; type: functional, cell-based
[2] = test system: PC-12; assay: Enhancement of NGF-induced neurite outgrowth in rat PC12 cells assessed as morphological changes at 0.1 to 50 uM after 4 days by phase-contrast microscopy; type: functional, cell-based
[3] = test system: PC-12; assay: Enhancement of neurite length extending from cell bodies in NGF-mediated rat PC12 cells at 0.1 to 50 uM after 4 days; type: functional, cell-based
[4] = test system: PC-12; assay: Enhancement of NGF-induced neurite outgrowth in rat PC12 cells assessed as morphological changes after 4 days by phase-contrast microscopy; type: functional, cell-based
[5] = test system: PC-12; assay: Cytotoxicity against rat PC12 cells at 50 uM; type: cell-based; details: pc-12, 50 µM
[6] = test system: PC-12; assay: Enhancement of neurite length extending from cell bodies in NGF-mediated rat PC12 cells at 30 uM after 4 days; type: functional
[7] = test system: PC-12; assay: Enhancement of neurite length extending from cell bodies in NGF-mediated rat PC12 cells at 10 uM after 4 days; type: functional
[8] = test system: PC-12; assay: Enhancement of neurite length extending from cell bodies in NGF-mediated rat PC12 cells at 1 uM after 4 days; type: functional
[9] = test system: PC-12; assay: Enhancement of neurite length extending from cell bodies in NGF-mediated rat PC12 cells at 0.1 uM after 4 days; type: functional
[10] = test system: PC-12; assay: Enhancement of neurite length extending from cell bodies in NGF-mediated rat PC12 cells at 50 uM after 4 days; type: functional
[11] = test system: PC-12; assay: Enhancement of neurite length extending from cell bodies in NGF-mediated rat PC12 cells after 4 days relative to control; type: functional, cell-based

Compound | Activity [1] | Activity [2] | Activity [3] | Activity [4] | Activity [5] | Activity [6] [um] | Activity [7] [um] | Activity [8] [um] | Activity [9] [um] | Activity [10] [um] | Activity [11]
CC1=CCC[C@@H]2[C@@](C)(CCC3=CC(=O)OC3)[C@H](C)[C@H](O)C[C@@]12C | inactive | inactive | inactive |  |  |  |  |  |  |  | 
CC1=CCC[C@@H]2[C@@](C)(CCc3ccoc3)[C@H](C)[C@@H]3OC(C)(C)O[C@@H]3[C@@]12C |  |  | inactive |  |  |  |  |  |  |  | 
CC1=CCC[C@@H]2[C@@](CO)(CCc3ccoc3)[C@H](C)[C@H](O)C[C@@]12C | inactive |  |  | Dose-dependent effect | Toxic | 236.3 | 106.5 | 101.7 | 95.3 |  | 
CC1=CCC[C@@H]2[C@@](C)(CCc3ccoc3)[C@H](C)[C@H](O)[C@H](O)[C@@]12C | inactive |  |  | Dose-dependent effect |  | 201.5 | 173.1 | 115.8 | 104 | 205.3 | Dose-dependent effect
COC1C=C(CC[C@@]2(C)[C@H](C)[C@H](O)[C@H](O)[C@@]3(C)C(C)=CCC[C@H]23)C(=O)O1 (some centres not stated) | inactive | inactive | inactive |  |  |  |  |  |  |  | 
